Measurements as given in the NIST ThermoML archive (doi:10.1021/je100423n).
± gives the expanded uncertainty stated by the source.

What was measured:
[1] = Molar enthalpy of transition or fusion; conditions: Crystal; DSC
[2] = molar heat capacity at constant pressure; conditions: 101.33 kPa, Crystal

Cn1cc[n+](CCCCS(=O)(=O)[O-])c1 [4-(1-methyl-1H-imidazolium-3-yl)butane-1-sulfonate]
Conditions	Molar enthalpy of transition or fusion [kcal/mol]
[1]	6.01 ± 0.184

Conditions	Glass transition temperature [°C]	Normal melting temperature [°C]	molar heat capacity at constant pressure [J/K/mol]
Crystal, DTA	–	235.83 ± 0.5	–
Glass, Adiabatic calorimetry	30.46 ± 0.05	–	–
[2], 80.21 K	–	–	109.32 ± 2.6
[2], 82.3 K	–	–	110.19 ± 2.6
[2], 84.23 K	–	–	111.45 ± 2.6
[2], 86.16 K	–	–	114.23 ± 2.7
[2], 88.12 K	–	–	115.88 ± 2.7
[2], 90.06 K	–	–	117.56 ± 2.7
[2], 92.01 K	–	–	118.29 ± 2.7
[2], 93.95 K	–	–	119.31 ± 2.7
[2], 95.89 K	–	–	120.93 ± 2.7
[2], 97.83 K	–	–	122.2 ± 2.8
[2], 99.77 K	–	–	123.74 ± 2.8
[2], 102.48 K	–	–	124.48 ± 2.8
[2], 105.12 K	–	–	126.89 ± 2.8
[2], 107 K	–	–	127.99 ± 2.9
[2], 108.91 K	–	–	129.52 ± 2.9
[2], 110.85 K	–	–	130.01 ± 2.9
[2], 112.81 K	–	–	131.16 ± 2.9
[2], 114.75 K	–	–	132.61 ± 2.9
[2], 116.67 K	–	–	133.57 ± 2.9
[2], 118.61 K	–	–	135.14 ± 3
[2], 120.58 K	–	–	137.07 ± 3
[2], 122.53 K	–	–	137.67 ± 3
[2], 124.46 K	–	–	138.87 ± 3
[2], 126.38 K	–	–	139.75 ± 3
[2], 128.32 K	–	–	140.75 ± 3
[2], 130.3 K	–	–	142.4 ± 3.1
[2], 132.25 K	–	–	144.69 ± 3.1
[2], 134.2 K	–	–	145.28 ± 3.1
[2], 136.13 K	–	–	145.45 ± 3.1
[2], 138.04 K	–	–	146.27 ± 3.1
[2], 139.98 K	–	–	147.32 ± 3.2
[2], 141.94 K	–	–	148.6 ± 3.2
[2], 143.9 K	–	–	150.42 ± 3.2
[2], 145.84 K	–	–	151.09 ± 3.2
[2], 147.76 K	–	–	152.25 ± 3.2
[2], 149.67 K	–	–	153.38 ± 3.2
[2], 152.19 K	–	–	153.72 ± 3.3
[2], 154.71 K	–	–	155.47 ± 3.3
[2], 156.63 K	–	–	157 ± 3.3
[2], 158.54 K	–	–	158.94 ± 3.3
[2], 160.5 K	–	–	159.74 ± 3.4
[2], 162.51 K	–	–	160.66 ± 3.4
[2], 164.51 K	–	–	162.3 ± 3.4
[2], 166.5 K	–	–	163.42 ± 3.4
[2], 168.48 K	–	–	163.25 ± 3.4
[2], 170.44 K	–	–	164.22 ± 3.4
[2], 172.4 K	–	–	166.07 ± 3.5
[2], 174.34 K	–	–	169.35 ± 3.5
[2], 176.29 K	–	–	169.43 ± 3.5
[2], 178.22 K	–	–	169.86 ± 3.5
[2], 180.14 K	–	–	172.46 ± 3.6
[2], 182.06 K	–	–	172.94 ± 3.6
[2], 183.96 K	–	–	173.45 ± 3.6
[2], 185.91 K	–	–	174.79 ± 3.6
[2], 187.92 K	–	–	176.2 ± 3.6
[2], 189.92 K	–	–	177.8 ± 3.6
[2], 191.9 K	–	–	179.25 ± 3.7
[2], 193.89 K	–	–	180.62 ± 3.7
[2], 195.86 K	–	–	181.69 ± 3.7
[2], 197.82 K	–	–	183.02 ± 3.7
[2], 199.78 K	–	–	184.59 ± 3.8
[2], 202.16 K	–	–	186.03 ± 3.8
[2], 204.55 K	–	–	188.92 ± 3.8
[2], 206.52 K	–	–	189.41 ± 3.8
[2], 208.48 K	–	–	190.86 ± 3.9
[2], 210.43 K	–	–	192.56 ± 3.9
[2], 212.37 K	–	–	193.16 ± 3.9
[2], 214.31 K	–	–	194.31 ± 3.9
[2], 216.23 K	–	–	195.92 ± 3.9
[2], 218.15 K	–	–	196.94 ± 4
[2], 220.06 K	–	–	198.36 ± 4
[2], 221.95 K	–	–	199.16 ± 4
[2], 223.84 K	–	–	200.4 ± 4
[2], 225.81 K	–	–	201.12 ± 4
[2], 227.76 K	–	–	203.49 ± 4.1
[2], 229.69 K	–	–	205.7 ± 4.1
[2], 231.68 K	–	–	206.8 ± 4.1
[2], 233.67 K	–	–	207.23 ± 4.1
[2], 235.68 K	–	–	210 ± 4.2
[2], 237.67 K	–	–	211.8 ± 4.2
[2], 239.66 K	–	–	212.72 ± 4.2
[2], 242.01 K	–	–	212.87 ± 4.2
[2], 244.29 K	–	–	213.82 ± 4.2
[2], 246.26 K	–	–	215.02 ± 4.2
[2], 248.23 K	–	–	216.05 ± 4.3
[2], 250.19 K	–	–	217.52 ± 4.3
[2], 252.24 K	–	–	219.72 ± 4.3
[2], 254.3 K	–	–	221.07 ± 4.3
[2], 256.34 K	–	–	222.28 ± 4.4
[2], 258.38 K	–	–	223.16 ± 4.4
[2], 260.41 K	–	–	224.41 ± 4.4
[2], 262.43 K	–	–	226.87 ± 4.4
[2], 264.45 K	–	–	228.3 ± 4.5
[2], 266.45 K	–	–	230.63 ± 4.5
[2], 268.46 K	–	–	233.04 ± 4.5
[2], 270.45 K	–	–	233.66 ± 4.5
[2], 272.44 K	–	–	235.64 ± 4.6
[2], 274.42 K	–	–	237.81 ± 4.6
[2], 276.4 K	–	–	239.51 ± 4.6
[2], 278.38 K	–	–	241.25 ± 4.7
[2], 280.34 K	–	–	243.42 ± 4.7
[2], 282.3 K	–	–	245.29 ± 4.7
[2], 284.25 K	–	–	246.94 ± 4.8
[2], 286.19 K	–	–	249.67 ± 4.8
[2], 288.12 K	–	–	252.87 ± 4.8
[2], 290.04 K	–	–	253.95 ± 4.9
[2], 291.95 K	–	–	254.73 ± 4.9
[2], 293.85 K	–	–	255.69 ± 4.9
[2], 295.85 K	–	–	257.59 ± 4.9
[2], 297.85 K	–	–	258.49 ± 4.9
[2], 299.75 K	–	–	260.96 ± 5
[2], 301.74 K	–	–	261.24 ± 5
[2], 303.72 K	–	–	264.66 ± 5
[2], 305.71 K	–	–	264.36 ± 5
[2], 307.78 K	–	–	264.22 ± 5
[2], 309.84 K	–	–	267.13 ± 5.1
[2], 311.9 K	–	–	269.55 ± 5.1
[2], 313.95 K	–	–	271.31 ± 5.1
[2], 315.99 K	–	–	273.57 ± 5.2
[2], 318.03 K	–	–	274.9 ± 5.2
[2], 320.06 K	–	–	276.18 ± 5.2
[2], 322.09 K	–	–	278.14 ± 5.2
[2], 324.11 K	–	–	279.41 ± 5.3
[2], 326.12 K	–	–	281.91 ± 5.3
[2], 328.13 K	–	–	283.31 ± 5.3
[2], 330.13 K	–	–	285.02 ± 5.4
[2], 332.13 K	–	–	286.68 ± 5.4
[2], 334.12 K	–	–	289.14 ± 5.4
[2], 336.11 K	–	–	290.13 ± 5.4
[2], 338.09 K	–	–	291.64 ± 5.5
[2], 340.07 K	–	–	293.16 ± 5.5
[2], 342.04 K	–	–	294.72 ± 5.5
[2], 344 K	–	–	297.82 ± 5.6
[2], 345.96 K	–	–	300.22 ± 5.6
[2], 347.92 K	–	–	301.67 ± 5.6
[2], 349.87 K	–	–	302.61 ± 5.6
[2], 351.81 K	–	–	304.94 ± 5.7
[2], 353.75 K	–	–	306.16 ± 5.7
[2], 355.69 K	–	–	308.54 ± 5.7
[2], 357.62 K	–	–	308.82 ± 5.7
[2], 359.54 K	–	–	310.24 ± 5.8
[2], 361.47 K	–	–	312.31 ± 5.8
[2], 363.48 K	–	–	313.02 ± 5.8
[2], 365.48 K	–	–	315.16 ± 5.8
[2], 367.47 K	–	–	315.19 ± 5.8
[2], 369.54 K	–	–	318.14 ± 5.9
[2], 371.62 K	–	–	320.13 ± 5.9
[2], 373.68 K	–	–	321.14 ± 5.9
[2], 375.73 K	–	–	323.95 ± 6
[2], 377.79 K	–	–	324.83 ± 6
[2], 379.83 K	–	–	325.26 ± 6
[2], 381.87 K	–	–	327.6 ± 6
[2], 383.9 K	–	–	332.07 ± 6.1
[2], 385.94 K	–	–	334 ± 6.1
[2], 387.96 K	–	–	335.27 ± 6.2
[2], 389.98 K	–	–	335.42 ± 6.2
[2], 391.98 K	–	–	337.63 ± 6.2
[2], 393.99 K	–	–	338.39 ± 6.2
[2], 395.97 K	–	–	341.92 ± 6.3
[2], 397.96 K	–	–	344.53 ± 6.3
